Test results reported in patent publication US20230115907A1, “HETEROCYCLIC COMPOUND AND PHARMACEUTICAL COMPOSITION, PREPARATION METHOD, INTERMEDIATE AND USE THEREOF” (EVOPOINT BIOSCIENCES CO., LTD., priority 2019, published 2023).

Key:
[1] = system: HCC70 cells; experiment: Inhibition of cell proliferation, CellTiter-Glo, HCC70; type: cell-based; settings: Homo sapiens, HCC70, 72 h, Efficacy Example 2 (Table 2), 72 h incubation
Procedure: (§1) The compounds were each prepared with 100% DMSO into 10 mM mother liquor.
(§2) HCC70 cells and OVCAR3 cells were digested and counted. Cells were diluted to an appropriate concentration according to cell density. 100 μL of cells were added to each well of a 96-well plate. Medium wells served as blank control (Min). The cells were incubated overnight in an incubator at 37° C./5% CO2.
(§3) A 200-fold stock solution of a compound was prepared with DMSO, and the compound was diluted with growth medium to a 3-fold stock solution, i.e., […] of each of 200-fold stock solutions of compound at different concentrations was added to 197 μL of medium. 50 μL of diluted compound was added to each well and the mixture was incubated at 37° C./5% CO2 for 72 h.
(§4) The 96-well plate was equilibrated to room temperature before detection. 40 μL of CellTiter-Glo solution was added to each well. The mixture was mixed for 2 min using a horizontal shaker to induce cell lysis. The mixture was incubated at room temperature for 60 min to stabilize […] signals. Fluorescence values were read on ENVISION.
(§5) (1) Data was analyzed by GraphPad Prism 5
(§6) (2) % inhibition rate=(maximum signal−compound signal)/(maximum signal−minimum signal)×100
(§7) (3) Maximum signal: signal of DMSO well
(§8) (4) Minimum signal: signal of medium well
(§9) The effect of SZ-015200, SZ-015256 and SZ-015268 on cell proliferation after incubation with HCC70, OVCAR-3, HCT116 and HCC1806 cells for 3 days was detected according to the method described in Efficacy Example 2, and the results are shown in Table 3.

[2] = system: OVCAR3 cells; experiment: Inhibition of cell proliferation, CellTiter-Glo, OVCAR3; type: cell-based; settings: Homo sapiens, OVCAR-3, 72 h, Efficacy Example 2 (Table 2), 72 h incubation
Procedure: as §1, §2, §3, §4, §5, §6, §7, §8, §9

[3] = target: CDK7/Cyclin H/MAT1 (Homo sapiens, UniProt P50613); experiment: CDK7 inhibition, mobility shift assay
Chain of CDK7/Cyclin H/MAT1 (P50613 whole entry): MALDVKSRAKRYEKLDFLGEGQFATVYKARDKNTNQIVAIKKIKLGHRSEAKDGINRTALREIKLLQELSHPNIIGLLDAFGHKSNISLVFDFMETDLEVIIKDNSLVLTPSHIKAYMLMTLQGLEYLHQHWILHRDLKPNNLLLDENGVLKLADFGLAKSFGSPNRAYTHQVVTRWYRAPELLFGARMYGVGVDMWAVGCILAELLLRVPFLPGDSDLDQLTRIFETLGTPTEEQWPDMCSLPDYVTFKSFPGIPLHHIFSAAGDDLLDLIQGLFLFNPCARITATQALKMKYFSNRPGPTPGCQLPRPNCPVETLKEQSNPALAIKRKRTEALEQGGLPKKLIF
Chain of CDK7/Cyclin H/MAT1 (P51946 whole entry partner): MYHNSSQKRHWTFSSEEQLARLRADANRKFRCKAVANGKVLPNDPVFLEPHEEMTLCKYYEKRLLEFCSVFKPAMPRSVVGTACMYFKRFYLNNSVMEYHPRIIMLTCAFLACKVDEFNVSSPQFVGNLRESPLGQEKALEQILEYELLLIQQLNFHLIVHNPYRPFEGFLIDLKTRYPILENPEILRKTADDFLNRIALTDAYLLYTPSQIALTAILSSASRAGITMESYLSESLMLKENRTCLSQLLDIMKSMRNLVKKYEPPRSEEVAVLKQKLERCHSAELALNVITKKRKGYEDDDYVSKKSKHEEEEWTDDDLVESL
Chain of CDK7/Cyclin H/MAT1 (P51948 whole entry partner): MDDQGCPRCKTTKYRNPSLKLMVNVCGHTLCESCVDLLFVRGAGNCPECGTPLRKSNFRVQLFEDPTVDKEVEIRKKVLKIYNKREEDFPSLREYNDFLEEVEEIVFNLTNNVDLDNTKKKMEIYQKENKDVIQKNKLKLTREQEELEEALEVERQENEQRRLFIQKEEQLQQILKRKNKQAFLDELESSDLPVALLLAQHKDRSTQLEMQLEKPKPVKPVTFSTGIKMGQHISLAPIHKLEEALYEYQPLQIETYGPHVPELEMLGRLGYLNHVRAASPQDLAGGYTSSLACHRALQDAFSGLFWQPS
Procedure: The initial concentration of compound was 10 μM, and the compound was 3-fold diluted to obtain 10 concentrations. Duplicate wells were set for the assay, and the pre-incubation time of compound and enzyme was 60 min.
Compound powders were dissolved in 100% DMSO to prepare 10 mM stock solution, which was 3-fold diluted with DMSO, with 0.5 mM as the initial concentration, to obtain 10 concentration gradients of compound solutions.
(1) Compound at each concentration was 8.3-fold diluted with ddH2O, and then 2 μL of each compound solution and positive control were added to a 384-well plate.
(2) 5 μL of a kinase working solution (CDK7/Cyclin H/MAT1) was added to the compound wells and positive control wells to make the final concentration of CDK7 be 3 nM.
(3) The plate was pre-incubated at room temperature for 60 min.
(5) The 384-well plate was incubated at 27° C. for 36 min.
(6) 4 μL of 80 mM EDTA was added to terminate the reaction.
(7) The conversion rates were read using a Caliper EZ Reader II.

Structure (SMILES) | IC50 [1] [µM] | IC50 [2] [µM] | IC50 [3] [µM]
Cc1cc(NC2CCN(C(=O)O[C@H]3CCN(C(=O)/C=C/CN(C)C)C3)CC2)c2ncn(C(C)C)c2n1 [SZ-015095, (S,E)-1-(4-(dimethylamino)but-2-enoyl)pyrrolidin-3-yl 4-((3-isopropyl-5-methyl-3H-imidazo[4,5-b]pyridin-7-yl)amino)piperidine-1-carboxylate] | 0.479 | 0.138 | 0.128
Cc1nc(NC2CCN(C(=O)O[C@H]3CCN(C(=O)/C=C/CN(C)C)C3)CC2)c2ncc(C(C)C)n2n1 [SZ-0015268] |  |  | 0.0236
Cc1cc2c(ncn2C(C)C)c(NC2CCN(C(=O)O[C@H]3CCN(C(=O)/C=C/CN(C)C)C3)CC2)n1 [SZ-015272, (S,E)-1-(4-(dimethylamino)but-2-enoyl)pyrrolidin-3-yl 4-((1-isopropyl-6-methyl-1H-imidazo[4,5-c]pyridin-4-yl)amino)piperidine-1-carboxylate] | 0.948 | 0.46 | 0.278
Cc1cc(NC2CCN(C(=O)O[C@H]3CCN(C(=O)/C=C/CN(C)C)C3)CC2)c2ncc(C(C)C)n2n1 [SZ-015273, (S,E)-1-(4-(dimethylamino)but-2-enoyl)pyrrolidin-3-yl 4-((3-isopropyl-6-methylimidazo[1,2-b]pyridazin-8-yl)amino)piperidin-1-carboxylate] | 0.291 | 0.0319 | 0.0445
Cc1cn2c(C(C)C)cnc2c(NC2CCN(C(=O)O[C@H]3CCN(C(=O)/C=C/CN(C)C)C3)CC2)n1 [SZ-015274] | 0.187 | 0.151 | 0.197
CC(C)c1cnc2c(NC3CCN(C(=O)O[C@H]4CCN(C(=O)/C=C/CN(C)C)C4)CC3)nc(C3CC3)nn12 [SZ-015338, (S,E)-1-(4-(dimethylamino)but-2-enoyl)pyrrolidin-3-yl 4-((2-cyclopropyl-7-isopropylimidazo[2,1-f][1,2,4]triazin-4-yl)amino)piperidine-1-carboxylate] | 0.0487 | 0.0297 | 
CC(C)c1nc(NC2CCN(C(=O)O[C@H]3CCN(C(=O)/C=C/CN(C)C)C3)CC2)c2ncc(C(C)C)n2n1 [SZ-015339, (S,E)-1-(4-(dimethylamino)but-2-enoyl)pyrrolidin-3-yl 4-((2,7-diisopropylimidazo[2,1-f][1,2,4]triazin-4-yl)amino)piperidine-1-carboxylate] | 0.0547 | 0.0643 | 
CC(C)c1cn2c(C(C)C)cnc2c(NC2CCN(C(=O)O[C@H]3CCN(C(=O)/C=C/CN(C)C)C3)CC2)n1 [SZ-015342, (S,E)-1-(4-(dimethylamino)but-2-enoyl)pyrrolidin-3-yl 4-((3,6-diisopropylimidazo[1,2-a]pyrazin-8-yl)amino)piperidine-1-carboxylate] | 0.419 | 0.204 | 
CC(C)Oc1nc(NC2CCN(C(=O)O[C@H]3CCN(C(=O)/C=C/CN(C)C)C3)CC2)c2ncc(C(C)C)n2n1 [SZ-015346, (S,E)-1-(4-(dimethylamino)but-2-enoyl)pyrrolidin-3-yl 4-((2-isopropoxy-7-isopropylimidazo[2,1-f][1,2,4]triazin-4-yl)amino)piperidine-1-carboxylate] | 0.14 | 0.0488 | 
